Where “and” joins values, the source holds several entries; their conditions need not be identical. Equal entries are not always repeated.
Legend:
rRyR1 = rRyR1 (Oryctolagus cuniculus, UniProt P11716); experiment: time-lapse [Ca2+]ER fluorescence assay, HEK293 cells; format: cell-based, rabbit
Sf RyR = Sf RyR (Spodoptera frugiperda, UniProt A0A4P8L6R5); experiment: as above; format: cell-based
chiRyR [1] = target: T1, chiRyR (Oryctolagus cuniculus, UniProt P11716, C4657I/F4564Y/L4792S/R4563K); experiment: cell-based; parameters: species or system rabbit
rRyR1 R4563K = target: T2, rRyR1 R4563K (Oryctolagus cuniculus, UniProt P11716, R4563K); experiment: time-lapse [Ca2+]ER fluorescence assay, HEK293 cells; format: cell-based, rabbit; details: n = 3
T2 construct: expressed in transfected cells

rRyR1 F4564Y = target: T3, rRyR1 F4564Y (Oryctolagus cuniculus, UniProt P11716, F4564Y); experiment: as above; format: cell-based, rabbit; details: n = 3
T3 construct: expressed in transfected cells

rRyR1 C4657I = target: T4, rRyR1 C4657I (Oryctolagus cuniculus, UniProt P11716, C4657I); experiment: as above; format: cell-based, rabbit; details: n = 3
T4 construct: expressed in transfected cells

rRyR1 L4792S = target: T5, rRyR1 L4792S (Oryctolagus cuniculus, UniProt P11716, L4792S); experiment: as above; format: cell-based, rabbit; details: n = 3
T5 construct: expressed in transfected cells

chiRyR-I4657M/G4819E [2] = target: T6, chiRyR-I4657M/G4819E (Oryctolagus cuniculus, UniProt P11716, C4657M/F4564Y/G4819E/L4792S/R4563K); experiment: cell-based; parameters: species or system rabbit
Sf RyR_I4734M/G4891E = Sf RyR_I4734M/G4891E (Spodoptera frugiperda, UniProt A0A4P8L6R5, G4891E/I4734M); experiment: cell-based
chiRyR [3] = target: T1, chiRyR; experiment: biochemical; format: biochemical, rabbit
chiRyR-I4657M/G4819E [4] = target: T6, chiRyR-I4657M/G4819E; experiment: biochemical; format: biochemical, rabbit
[5] = system: Drosophila melanogaster RyR M4758I; experiment: Bioassay of gene-edited Drosophila melanogaster (feeding, mortality after 24 h); format: in vivo; details: for death rate: 24 h
[6] = system: Drosophila melanogaster RyR G4915E; experiment: as above; format: in vivo; details: for death rate: 24 h
solubility comparison = format: physicochemical
Spodoptera frugiperda = system: Spodoptera frugiperda; parameters: method as in PMID 31157506; details: in vivo; cited from earlier work

Structure (SMILES): CNC(=O)c1cc(Cl)cc(C)c1NC(=O)c1cc(Br)nn1-c1ncccc1Cl [CHL, chlorantraniliprole]
- EC50 (rRyR1): 4900 nM
- F/F0 (Sf RyR; CHL 1e-5 uM): 0.9606 and 0.9752 and 0.9813
- F/F0 (Sf RyR; CHL 0.001 uM): 1.004 and 1.002 and 1.001
- F/F0 (Sf RyR; CHL 0.005 uM): 0.7229 and 0.7431 and 0.7294
- F/F0 (Sf RyR; CHL 0.01 uM): 0.3097 and 0.3094 and 0.2868
- F/F0 (Sf RyR; CHL 0.1 uM): 0.2582 and 0.2663 and 0.2776
- F/F0 (Sf RyR; CHL 0.5 uM): 0.268 and 0.2944 and 0.2596
- F/F0 (Sf RyR; CHL 1 uM): 0.2734 and 0.2934 and 0.2867
- F/F0 (Sf RyR; CHL 10 uM): 0.2774 and 0.2809 and 0.2932
- F/F0 (Sf RyR; CHL 50 uM): 0.2939 and 0.2698 and 0.3129
- EC50 (Sf RyR; n = 3, read-out: EC50): 5.5 nM
- EC50 (chiRyR [1]): 1.6 nM
- F/F0 (chiRyR [1]; CHL 1e-5 uM): 0.9477 and 0.9176 and 0.9126
- F/F0 (chiRyR [1]; CHL 2.5e-5 uM): 0.9199 and 0.9229 and 0.931
- F/F0 (chiRyR [1]; CHL 5e-5 uM): 0.8883 and 0.929 and 0.9092
- F/F0 (chiRyR [1]; CHL 0.0001 uM): 0.9049 and 0.9411 and 0.8175
- F/F0 (chiRyR [1]; CHL 0.00025 uM): 0.8945 and 0.8973 and 0.8398
- F/F0 (chiRyR [1]; CHL 0.0005 uM): 0.6917 and 0.6365 and 0.6304
- F/F0 (chiRyR [1]; CHL 0.0025 uM): 0.5122 and 0.4849 and 0.4622
- F/F0 (chiRyR [1]; CHL 0.005 uM): 0.6454 and 0.5393 and 0.4867
- F/F0 (chiRyR [1]; CHL 0.01 uM): 0.4912 and 0.5046 and 0.4772
- F/F0 (chiRyR [1]; CHL 0.025 uM): 0.5158 and 0.4751 and 0.4992
- F/F0 (chiRyR [1]; CHL 0.05 uM): 0.5374 and 0.5173 and 0.549
- F/F0 (chiRyR [1]; CHL 0.1 uM): 0.4915 and 0.5257 and 0.4507
- F/F0 (chiRyR [1]; CHL 1 uM): 0.5356 and 0.5199 and 0.5646
- F/F0 (chiRyR [1]; CHL 3 uM): 0.5195 and 0.4435 and 0.4631
- F/F0 (chiRyR [1]; CHL 10 uM): 0.5287 and 0.4905 and 0.48
- F/F0 (chiRyR [1]; CHL 30 uM): 0.5354 and 0.4682 and 0.4761
- F/F0 (chiRyR [1]; CHL 50 uM): 0.5799 and 0.4954 and 0.5274
- EC50 (rRyR1 R4563K): 62.6 nM
- EC50 (rRyR1 F4564Y): 556 nM
- EC50 (rRyR1 C4657I): 167 nM
- EC50 (rRyR1 L4792S): 44.8 nM
- F/F0 (chiRyR-I4657M/G4819E [2]; CHL 1e-5 uM): 0.8891 and 0.8803 and 0.8832
- F/F0 (chiRyR-I4657M/G4819E [2]; CHL 0.0001 uM): 0.8817 and 0.9289 and 0.9243
- F/F0 (chiRyR-I4657M/G4819E [2]; CHL 0.001 uM): 0.9674 and 0.9402 and 0.9553
- F/F0 (chiRyR-I4657M/G4819E [2]; CHL 0.005 uM): 0.9942 and 0.938 and 0.9411
- F/F0 (chiRyR-I4657M/G4819E [2]; CHL 0.01 uM): 0.9479 and 0.955 and 0.9174
- F/F0 (chiRyR-I4657M/G4819E [2]; CHL 0.1 uM): 0.9465 and 0.9355 and 0.9097
- F/F0 (chiRyR-I4657M/G4819E [2]; CHL 0.3 uM): 0.9306 and 0.9655 and 0.9439
- F/F0 (chiRyR-I4657M/G4819E [2]; CHL 0.5 uM): 0.9145 and 0.8971 and 0.9399
- F/F0 (chiRyR-I4657M/G4819E [2]; CHL 1 uM): 0.9091 and 0.8544 and 0.9005
- F/F0 (chiRyR-I4657M/G4819E [2]; CHL 3 uM): 0.8328 and 0.8713 and 0.8682
- F/F0 (chiRyR-I4657M/G4819E [2]; CHL 10 uM): 0.808 and 0.819 and 0.7565
- F/F0 (chiRyR-I4657M/G4819E [2]; CHL 30 uM): 0.7257 and 0.6335 and 0.5826
- F/F0 (chiRyR-I4657M/G4819E [2]; CHL 50 uM): 0.6512 and 0.5528 and 0.5088
- F/F0 (chiRyR-I4657M/G4819E [2]; CHL 100 uM): 0.5781 and 0.4912
- F/F0 (chiRyR-I4657M/G4819E [2]; CHL 200 uM): 0.6274 and 0.5179
- F/F0 (chiRyR-I4657M/G4819E [2]; CHL 500 uM): 0.5379 and 0.5182
- EC50 (chiRyR-I4657M/G4819E [2]; EC50, diamide insecticides, n = 3): 10300 nM and 14600 nM
- EC50 (Sf RyR_I4734M/G4891E): 9100 nM
- F/F0 (Sf RyR_I4734M/G4891E; CHL 0.1 uM): 0.9609 and 0.9591 and 1.0034
- F/F0 (Sf RyR_I4734M/G4891E; CHL 1 uM): 0.987 and 0.977 and 0.9858
- F/F0 (Sf RyR_I4734M/G4891E; CHL 10 uM): 0.5363 and 0.6213 and 0.7359
- F/F0 (Sf RyR_I4734M/G4891E; CHL 50 uM): 0.3469 and 0.3845 and 0.4143
- F/F0 (Sf RyR_I4734M/G4891E; CHL 100 uM): 0.3178 and 0.3119 and 0.3455
- F/F0 (Sf RyR_I4734M/G4891E; CHL 150 uM): 0.3313 and 0.3179 and 0.3624
- F/F0 (Sf RyR_I4734M/G4891E; CHL 200 uM): 0.3347 and 0.3244 and 0.3692
- EC50 (chiRyR [3]): 1.7 ± 0.3 nM
- [3H]ryanodine binding (B/Bmax) (chiRyR [3]; CHL 0.010 uM): 0.191 and 0.230 and 0.144 and 0.262
- [3H]ryanodine binding (B/Bmax) (chiRyR [3]; CHL 0.100 uM): 0.168 and 0.180 and 0.215
- [3H]ryanodine binding (B/Bmax) (chiRyR [3]; CHL 1.000 uM): 0.199 and 0.219 and 0.215 and 0.312
- [3H]ryanodine binding (B/Bmax) (chiRyR [3]; CHL 10.000 uM): 0.246 and 0.234 and 0.250 and 0.215
- [3H]ryanodine binding (B/Bmax) (chiRyR [3]; CHL 100.000 uM): 0.207 and 0.242 and 0.223 and 0.191
- EC50 (chiRyR-I4657M/G4819E [4]): 14700 ± 1600 nM
- [3H]ryanodine binding (B/Bmax) (chiRyR-I4657M/G4819E [4]; CHL 10.000 uM): 0.114 and 0.077 and 0.068 and 0.062
- [3H]ryanodine binding (B/Bmax) (chiRyR-I4657M/G4819E [4]; CHL 100.000 uM): 0.193 and 0.240 and 0.178 and 0.209
- LD50 ([5]; 24 h feeding, n = 30): 127.9 nM
- death rate ([5]; CHL 0.010 uM): 0%
- death rate ([5]; CHL 0.033 uM): 0% and 10%
- death rate ([5]; CHL 0.100 uM): 60% and 40%
- death rate ([5]; CHL 0.333 uM): 80% and 70%
- death rate ([5]; CHL 1.000 uM): 100% and 90%
- death rate ([5]; CHL 3.333 uM): 100%
- death rate ([5]; CHL 10.000 uM): 100%
- LD50 ([6]; 24 h feeding, n = 30, heterozygous G4915E/G): 1.6 mM
- death rate ([6]; CHL 1.000 uM): 0%
- death rate ([6]; CHL 3.333 uM): 0%
- death rate ([6]; CHL 10.000 uM): 0% and 10%
- death rate ([6]; CHL 33.333 uM): 10%
- death rate ([6]; CHL 100.000 uM): 10% and 20%
- relative solubility (solubility comparison): more soluble than TET
- fold decreased sensitivity (Spodoptera frugiperda): 225 fold

Reference: article PMC11491487 (Nature Communications, 2024)
